{"source": "paper PMC13050480", "about": "“Preclinical Development of GT-14, a Novel Inhibitor of Gαi2 Protein: Comprehensive Evaluation of Physicochemical, Metabolic Characteristics and Tissue Distribution” (The AAPS journal, 2025)", "key": {"DU145": {"test_system": "DU145", "design": "method as in PMID 32575572", "conditions": "cited from earlier work"}, "[1]": {"assay": "pH-dependent solubility in USP buffers", "format": "physicochemical", "conditions": "standard USP buffer, aqueous buffer", "method": "The pH-dependent stability of GT-14 was assessed in aqueous media of pH ranging from 1 to 10 at room temperature. Standard USP buffers ([11]) were prepared and used for this experiment. Details of buffer solutions are provided in Table I. For the pH solubility profile, GT-14 solid was added in excess amounts in various buffer solutions."}, "[2]": {"assay": "Lipophilicity (logP), octanol-water shake-flask method", "format": "physicochemical", "conditions": "1-octanol/water, room temperature, triplicate, read-out: experimental logP (octanol-water)", "method": "The lipophilicity of GT-14 as indicated by the logP value (octanol–water partition coefficient) was determined by the traditional shake-flask method. Briefly, equal volumes (1 mL) of 1-octanol and water were added to an amber glass bottle and allowed to equilibrate on a shaker for 24 h. Following equilibration, approx. 1 mg of GT-14 (dissolved in Acetonitrile) was added to the two-phase system and allowed to shake continuously at room temperature for 72 h. The two phases were separated using a separating funnel and then centrifuged at 15,000 rpm for 10 min. The concentration of GT-14 in the octanol and water phases was determined by UPLC assay. The experiment was conducted in triplicate.\nThe logP was calculated by the equation: logP=logOctanolConc./AqueousConc."}, "Caco-2 cell monolayers": {"test_system": "Caco-2 cell monolayers", "assay": "Bi-directional transport study in Caco-2 cell culture model", "format": "in vitro ADME, human", "method": "(§1) Caco-2 cells were cultivated as described previously with slight modification ([12]). Briefly, a cell monolayer was prepared by seeding 400,000 cells per insert (Nunc, surface area 4.2 cm^2, 3 μm pore size). Cells were maintained at 37°C under 90% humidity and 5% CO2. Monolayers were used between 19 and 22 days after seeding. The integrity of each monolayer was checked by measuring the transepithelial electrical resistance (Millicell ERS®) before the experiment. The normal TEER values obtained were above 400 Ω·cm^2. Cell monolayers with TEER values less than 400 Ω·cm^2 were not used. Hank’s balanced salt solution (HBSS) (9.8 g/L) was supplemented with NaHCO3 (0.37 g/L), HEPES (5.96 g/L), and glucose (3.5 g/L) for all experiments, after adjusting the pH to the desired value.\n(§2) For transport studies, 2.5 mL of GT-14 testing solution (10 μM) in HBSS (pH 7.4) was added to the apical side (A to B transport) or the basolateral side (B to A transport). Five donor samples (200 μL) and five receiver samples (200 μL) were taken at 0, 1, 2, 3, and 4 h followed by the addition of 200 μL of GT-14 test solution to the donor or 200 μL of blank HBSS buffer to the receiver side. Then, 100 μl of an ACN containing internal standard was added to the samples right after sampling. The TEER was measured at the end of the study, and the cell layer was washed carefully using cold blank HBSS 3 times, then cut and sonicated for 30 min in 1.0 mL of blank HBSS for intracellular GT-14 concentration measurement. All samples were centrifuged at 15,000 rpm for 15 min at 4°C for UPLC analysis.\n(§3) The apparent permeability coefficient and efflux ratio were obtained according to the following equations: […]"}, "[3]": {"assay": "Bi-directional transport study in Caco-2 cell culture model", "format": "in vitro ADME, human", "conditions": "human, donor 10 μM", "method": "as §1, §2, §3"}, "[4]": {"assay": "Cosolvent formulation: solubility, saline dilution and storage stability", "format": "physicochemical", "conditions": "for solubility: organic solvent or mixture", "method": "Co-solvent systems with various compositions and ratios of PEG 400, PEG 300, and propylene glycol were prepared to solubilize 5–10 mg/mL of GT-14. Each system was diluted with normal saline at different ratios of 1:1, 1:3, 1:7, and 1:15 (v/v) and observed for signs of precipitation for 4 h. The cosolvent system with maximum solubility and aqueous tolerance was tested for stability at different temperatures (−20°C, 4°C, and room temperature) in amber glass vials for up to a month. Samples were aliquoted at different time points and analyzed with UPLC."}, "rat liver microsomes": {"test_system": "rat liver microsomes", "assay": "Phase I biotransformation in rat liver microsomes", "format": "in vitro ADME", "conditions": "NADPH regenerating system, 37°C", "method": "(§4) The in vitro phase I reaction was conducted using rat liver microsome, which contain the cytochrome P450 monooxygenases that catalyze oxidation, reduction, or hydrolysis reactions to introduce or expose functional groups on the substrate. NADPH is the cofactor to provide the reducing equivalents required for enzymatic activity, while the cofactor regeneration systems (NADP^+, glucose-6-phosphate, and glucose-6-phosphate dehydrogenase) maintain a sustained supply of NADPH during the reaction to facilitate the metabolite, Potassium phosphate buffer (KPI) mimics physiological conditions. The components were added to microcentrifuge tubes in the following order: The stock solution GT-14 (5 μL, 1 mM) was pre-incubated with rat liver microsomes (12.5 μL, 20 mg/mL, Corning Inc.) at 37°C in KPI buffer(452.5 μL, 50 mM) for 5 min before the reaction was initiated by the addition of an NADPH regenerating system, which consisted of 25μL of solution A1(1.3 mM NADP+, 3.3 mM glucose-6-phosphate, 3.3 mM magnesium chloride), and 5μL of solution B1 (0.5 units/mL glucose-6-phosphate dehydrogenase). Reaction mixtures were incubated at 37 °C in a shaker bath, shaking at 100 rpm. […] The quenched samples were vortexed, centrifuged (14,000 rpm for 15 min) and analyzed by UPLC."}, "[5]": {"assay": "Phase I biotransformation in rat liver microsomes", "format": "in vitro ADME", "conditions": "rat, 60 min incubation", "method": "as §4"}, "LNCaP cells": {"test_system": "LNCaP cells", "design": "method as in PMID 38254786", "conditions": "simultaneous treatment; cited from earlier work"}}, "note": "Values joined by “and” are separate entries in the source; they are usually repeats but may differ in a detail not shown here. Identical values can stand only once. “Also recorded” adds a separate entry of the source. Like-named read-outs stand apart in the source and are kept apart here."}
{"molecule": "C/C(=N\\c1ccc(O)cc1)c1cc2ccccc2n1C", "note": "[GT-14, (E)-4-((1-(1-methyl-1H-indol-2-yl)ethylidene)amino)phenol]", "values": [{"measurement": "migratory capability of DU145 cells", "setting": "DU145", "result": "significant reduction"}, {"measurement": "solubility thermodynamic at 24 h", "setting": "[1]; between pH 5 and 7, 24 h", "result": "< 10", "unit": "µg/mL"}, {"measurement": "solubility thermodynamic at 24 h", "setting": "[1]; pH 1.2, 24 h", "result": "~80", "unit": "µg/mL"}, {"measurement": "solubility thermodynamic at 24 h", "setting": "[1]; pH 4.6, 24 h", "result": "~140", "unit": "µg/mL"}, {"measurement": "logP at 72 h", "setting": "[2]", "result": 2.38}, {"measurement": "BCS class", "setting": "Caco-2 cell monolayers; based on low aqueous solubility and high permeability", "result": "BCS class II"}, {"measurement": "predicted absorption in the GI tract in humans", "setting": "Caco-2 cell monolayers; predicted from Caco-2 permeability", "result": "> 75", "unit": "%"}, {"measurement": "efflux ratio at 4 h, 10 μM", "setting": "[3]; Caco-2, pH 7.4", "result": 1.8}, {"measurement": "Papp A→B at 4 h, 10 μM", "setting": "[3]; Caco-2, HBSS pH 7.4, n=3, read-out: apical to basolateral permeability (Pa-b)", "result": 13, "unit": "×10⁻⁶ cm/s"}, {"measurement": "Papp B→A at 4 h, 10 μM", "setting": "[3]; Caco-2, HBSS pH 7.4, n=3, read-out: basolateral to apical permeability (Pb-a)", "result": 24.2, "unit": "×10⁻⁶ cm/s"}, {"measurement": "Percentage Recovery, cosolvent formulation", "setting": "[4]; 4°C, Day 7", "result": "101.09 ± 2.19", "unit": "%"}, {"measurement": "Percentage Recovery, cosolvent formulation", "setting": "[4]; 4°C, Day 15", "result": "99.14 ± 0.32", "unit": "%"}, {"measurement": "Percentage Recovery, cosolvent formulation", "setting": "[4]; 4°C, Day 30", "result": "98.83 ± 0.15", "unit": "%"}, {"measurement": "solubility", "setting": "[4]; PEG300: PEG400: Propylene glycol (1:1:1), PEG300: PEG400: Propylene glycol, ratio 1:1:1, read-out: Solubility in cosolvent formulation", "result": 6000, "unit": "µg/mL"}, {"measurement": "solubility", "setting": "[4]; PEG300: PEG400: Propylene glycol (3:2:2 v/v), optimum, PEG300: PEG400: Propylene glycol, ratio 3:2:2 v/v, read-out: Solubility in cosolvent formulation (optimum)", "result": 8000, "unit": "µg/mL"}, {"measurement": "increase of solubility in optimum cosolvent formulation over water solubility", "setting": "[4]; PEG 300:PEG 400:propylene glycol 3:2:2", "result": "over 70 times"}, {"measurement": "solubility", "setting": "[4]; PEG 400: Propylene glycol: Tween 80 (2:1:0.25), PEG 400: Propylene glycol: Tween 80, ratio 2:1:0.25, read-out: Solubility in cosolvent formulation", "result": 5000, "unit": "µg/mL"}, {"measurement": "Percentage Recovery, cosolvent formulation", "setting": "[4]; Room Temperature, Day 7", "result": "93.4% and 93.37± 0.76%"}, {"measurement": "Percentage Recovery, cosolvent formulation", "setting": "[4]; Room Temperature, Day 15", "result": "91.18 ± 0.38", "unit": "%"}, {"measurement": "Percentage Recovery, cosolvent formulation", "setting": "[4]; Room Temperature, Day 30", "result": "90.88 ± 0.07", "unit": "%"}, {"measurement": "precipitation on dilution of cosolvent formulation with saline", "setting": "[4]; optimum cosolvent formulation, several ratios of saline", "result": "No precipitation was observed till a 10X dilution with saline"}, {"measurement": "appearance of cosolvent formulation after one month", "setting": "[4]; room temperature", "result": "grew a darker color"}, {"measurement": "appearance of cosolvent formulation after one month", "setting": "[4]; −20°C and 4°C", "result": "remained light yellow, without any visible particles"}, {"measurement": "Percentage Recovery, cosolvent formulation", "setting": "[4]; −20°C, Day 7", "result": "100.32 ± 0.08", "unit": "%"}, {"measurement": "Percentage Recovery, cosolvent formulation", "setting": "[4]; −20°C, Day 15", "result": "101.22 ± 0.27", "unit": "%"}, {"measurement": "Percentage Recovery, cosolvent formulation", "setting": "[4]; −20°C, Day 30", "result": "101.26 ± 0.39", "unit": "%"}, {"measurement": "Phase I metabolism (UPLC peaks)", "setting": "rat liver microsomes", "result": "undergoes Phase I metabolism; also recorded: underwent Phase I metabolism; also recorded: at least four additional peaks appeared"}, {"measurement": "remaining at 1 h, 10 μM", "setting": "[5]", "result": "> 90", "unit": "%"}, {"measurement": "HDACi and antiandrogen effects on cell migration in LNCaP cells", "setting": "LNCaP cells", "result": "blocked"}]}
